Where a name gives a salt, the structure may show the parent alone.

From patent publication US8207172B2 (Bayer Intellectual Property GmbH, priority 2004, dated 2012) come the findings set out here.

For test [1], the system named is BT474 (human breast carcinoma). The test can be described thus: In vitro tumor cell proliferation assay (Cell Titer-Glo luminescent cell viability), BT474. Conditions: BT-474, 72 h, BT474 cells, 72 hours of drug exposure, ATP luminescence readout, read-out: IC50, anti-proliferative activity (inhibition of cell proliferation). It is filed as cell-based. In outline:
(§1)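 IC50 values reflect ATP-based luminescence (CellTiter-Glo) after 72 h compound exposure at 37°C. Both lines, A431 and BT474, were plated in RPMI with 10% FBS and received serial dilutions ranging from 100 μM to 64 pM final at 0.1% DMSO.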
Background: Cellular ATP, detected with luciferase, serves as a proxy for viable cell number.

In test [2] the test system is A431 cells (human epidermoid carcinoma). The experiment in a line: In vitro tumor cell proliferation assay (Cell Titer-Glo luminescent cell viability), A431. The test is classed as cell-based. The conditions noted are these: A-431, 72 h, 72 hours of drug exposure, ATP luminescence readout, read-out: IC50, anti-proliferative activity (inhibition of cell proliferation). In outline:
as §1

`O=C(CCl)N1CCC(n2cc3c(n2)CCc2c-3sc3ncnc(Nc4ccc(OCc5cccc(F)c5)c(Cl)c4)c23)CC1` [Example 218, 2-[1-(chloroacetyl)piperidin-4-yl]-N-{3-chloro-4-[(3-fluorobenzyl)oxy]phenyl}-4,5-dihydro-2H-pyrimido[5′,4′:4,5]thieno[2,3-e]indazol-6-amine]: the IC50 in test [1] was at most 1 µM; in test [2], at most 50 µM.

With `CN(C)[C@@H]1CCN(CC(=O)N2CCC(n3cc4c(n3)CCc3c-4sc4ncnc(Nc5ccc(OCc6cccc(F)c6)c(Cl)c5)c34)CC2)C1` [Example 219, N-{3-chloro-4-[(3-fluorobenzyl)oxy]phenyl}-2-(1-{[(3R)-3-(dimethylamino)pyrrolidin-1-yl]acetyl}piperidin-4-yl)-4,5-dihydro-2H-pyrimido[5′,4′:4,5]thieno[2,3-e]indazol-6-amine], the values for the IC50 in test [1] and in test [2] were at most 1 µM and at most 5 µM, respectively.

`CCN(CC)CC(=O)N1CCC(n2cc3c(n2)CCc2c-3sc3ncnc(Nc4ccc(OCc5cccc(F)c5)c(Cl)c4)c23)CC1` [Example 220, N-{3-chloro-4-[(3-fluorobenzyl)oxy]phenyl}-2-{1-[(diethylamino)acetyl]piperidin-4-yl}-4,5-dihydro-2H-pyrimido[5′,4′:4,5]thieno[2,3-e]indazol-6-amine]: the IC50 in test [1] was at most 1 µM; in test [2], at most 5 µM.

Consider `O=C(CN1CCNCC1)N1CCC(n2cc3c(n2)CCc2c-3sc3ncnc(Nc4ccc(OCc5cccc(F)c5)c(Cl)c4)c23)CC1` [Example 221, N-{3-chloro-4-[(3-fluorobenzyl)oxy]phenyl}-2-[1-(piperazin-1-ylacetyl)piperidin-4-yl]-4,5-dihydro-2H-pyrimido[5′,4′:4,5]thieno[2,3-e]indazol-6-amine], for which the IC50 was at most 1 µM in test [1] and at most 50 µM in test [2].

Consider `O=C(CN1CCOCC1)N1CCC(n2cc3c(n2)CCc2c-3sc3ncnc(Nc4ccc(OCc5cccc(F)c5)c(Cl)c4)c23)CC1` [Example 222, N-{3-chloro-4-[(3-fluorobenzyl)oxy]phenyl}-2-[1-(morpholin-4-ylacetyl)piperidin-4-yl]-4,5-dihydro-2H-pyrimido[5′,4′:4,5]thieno[2,3-e]indazol-6-amine], for which the values for the IC50 in test [1] and in test [2] were at most 1 µM and at most 5 µM, respectively.

For `CN(C)[C@H]1CCN(CC(=O)N2CCC(n3cc4c(n3)CCc3c-4sc4ncnc(Nc5ccc(OCc6cccc(F)c6)c(Cl)c5)c34)CC2)C1` [Example 223, N-{3-chloro-4-[(3-fluorobenzyl)oxy)phenyl}-2-(1-{[(3S)-3-(dimethylamino)pyrrolidin-1-yl]acetyl}piperidin-4-yl)-4,5-dihydro-2H-pyrimido[5′,4′:4,5]thieno[2,3-e]indazol-6-amine], the IC50 in test [1] was at most 1 µM; in test [2] it was at most 5 µM.

As to `CN1CCN(CC(=O)N2CCC(n3cc4c(n3)CCc3c-4sc4ncnc(Nc5ccc(OCc6cccc(F)c6)c(Cl)c5)c34)CC2)CC1` [Example 224, N-{3-chloro-4-[(3-fluorobenzyl)oxy]phenyl}-2-{1-[(4-methylpiperazin-1-yl)acetyl]piperidin-4-yl}-4,5-dihydro-2H-pyrimido[5′,4′:4,5]thieno[2,3-e]indazol-6-amine], the IC50 is at most 1 µM in test [1] and at most 5 µM in test [2].

For the compound `C[N+]1(C)CCC(n2cc3c(n2)CCc2c-3sc3ncnc(Nc4ccc(OCc5cccc(F)c5)c(Cl)c4)c23)CC1` [Example 225, 4-[6-({3-chloro-4-[(3-fluorobenzyl)oxy]phenyl}amino)-4,5-dihydro-2H-pyrimido[5′,4′:4,5]thieno[2,3-e]indazol-2-yl]-1,1-dimethylpiperidinium trifluoroacetate], the IC50 in test [1] is at most 5 µM; in test [2], at most 50 µM.

With `CC[N+]1(CC)CCC(n2cc3c(n2)CCc2c-3sc3ncnc(Nc4ccc(OCc5cccc(F)c5)c(Cl)c4)c23)CC1` [Example 226, 4-[6-({3-chloro-4-[(3-fluorobenzyl)oxy]phenyl}amino)-4,5-dihydro-2H-pyrimido[5′,4′:4,5]thieno[2,3-e]indazol-2-yl]-1,1-diethylpiperidinium trifluoroacetate], the IC50 in test [1] is at most 1 µM; in test [2], at most 5 µM.

Consider `CC(C)N1CCC(n2cc3c(n2)CCc2c-3sc3ncnc(Nc4ccc(OCc5cccc(F)c5)c(Cl)c4)c23)CC1` [Example 227, N-{3-chloro-4-[(3-fluorobenzyl)oxy]phenyl}-2-(1-isopropylpiperidin-4-yl)-4,5-dihydro-2H-pyrimido[5′,4′:4,5]thieno[2,3-e]indazol-6-amine], for which the IC50 in test [1] was at most 1 µM; in test [2], at most 5 µM.

`CN1CCC(n2cc3c(n2)CCc2c-3sc3ncnc(Nc4ccc(OCc5cccc(F)c5)c(Cl)c4)c23)CC1` [Example 228, N-{3-chloro-4-[(3-fluorobenzyl)oxy]phenyl}-2-(1-methylpiperidin-4-yl)-4,5-dihydro-2H-pyrimido[5′,4′:4,5]thieno[2,3-e]indazol-6-amine]: the IC50 in test [1] is at most 1 µM; in test [2], at most 5 µM.

In the case of `CCCN1CCC(n2cc3c(n2)CCc2c-3sc3ncnc(Nc4ccc(OCc5cccc(F)c5)c(Cl)c4)c23)CC1` [Example 229, N-{3-chloro-4-[(3-fluorobenzyl)oxy]phenyl}-2-(1-propylpiperidin-4-yl)-4,5-dihydro-2H-pyrimido[5′,4′:4,5]thieno[2,3-e]indazol-6-amine], the IC50 in test [1] was at most 1 µM; in test [2], at most 5 µM.

On to `CCN1CCC(n2cc3c(n2)CCc2c-3sc3ncnc(Nc4ccc(OCc5cccc(F)c5)c(Cl)c4)c23)CC1` [Example 230, N-{3-chloro-4-[(3-fluorobenzyl)oxy]phenyl}-2-(1-ethylpiperidin-4-yl)-4,5-dihydro-2H-pyrimido[5′,4′:4,5]thieno[2,3-e]indazol-6-amine], for which the figures for the IC50 in test [1] and in test [2] were at most 1 µM and at most 5 µM, respectively.

Turning to `CC(C)(C)OC(=O)N1CCC(Cn2cc3c(n2)CCc2c-3sc3ncnc(Nc4ccc(OCc5cccc(F)c5)c(Cl)c4)c23)CC1` [Example 231, tert-butyl 4-{[6-({3-chloro-4-[(3-fluorobenzyl)oxy]phenyl}amino)-4,5-dihydro-2H-pyrimido[5′,4′:4,5]thieno[2,3-e]indazol-2-yl]methyl}piperidine-1-carboxylate], the IC50 in test [1] is at most 5 µM; in test [2], at most 50 µM.

Consider `Fc1cccc(COc2ccc(Nc3ncnc4sc5c(c34)CCc3nn(CC4CCNCC4)cc3-5)cc2Cl)c1` [Example 232, N-{3-chloro-4-[(3-fluorobenzyl)oxy]phenyl}-2-(piperidin-4-ylmethyl)-4,5-dihydro-2H-pyrimido[5′,4′:4,5]thieno[2,3-e]indazol-6-amine], for which the IC50 in test [1] is at most 1 µM; in test [2] it was at most 5 µM.

For `CN(C)[C@@H]1CCN(CC(=O)N2CCC(Cn3cc4c(n3)CCc3c-4sc4ncnc(Nc5ccc(OCc6cccc(F)c6)c(Cl)c5)c34)CC2)C1` [Example 234, N-{3-chloro-4-[(3-fluorobenzyl)oxy]phenyl}-2-[(1-{[(3R)-3-(dimethylamino)pyrrolidin-1-yl]acetyl}piperidin-4-yl)methyl]-4,5-dihydro-2H-pyrimido[5′,4′:4,5]thieno[2,3-e]indazol-6-amine trifluoroacetate], the IC50 in test [1] is at most 5 µM; in test [2] it was at most 50 µM.

On to `CN(C)[C@H]1CCN(CC(=O)N2CCC(Cn3cc4c(n3)CCc3c-4sc4ncnc(Nc5ccc(OCc6cccc(F)c6)c(Cl)c5)c34)CC2)C1` [Example 235, N-{3-chloro-4-[(3-fluorobenzyl)oxy]phenyl}-2-[(1-{[(3S)-3-(dimethylamino)pyrrolidin-1-yl]acetyl}piperidin-4-yl)methyl]-4,5-dihydro-2H-pyrimido[5′,4′:4,5]thieno[2,3-e]indazol-6-amine], for which the IC50 in test [1] is at most 1 µM; in test [2] it was at most 5 µM.

In the case of `CN1CCC(Cn2cc3c(n2)CCc2c-3sc3ncnc(Nc4ccc(OCc5cccc(F)c5)c(Cl)c4)c23)CC1` [Example 236, N-{3-chloro-4-[(3-fluorobenzyl)oxy]phenyl}-2-[(1-methylpiperidin-4-yl)methyl]-4,5-dihydro-2H-pyrimido[5′,4′:4,5]thieno-[2,3-e]indazol-6-amine], the IC50 in test [1] was at most 1 µM; in test [2], at most 5 µM.

Take `CN1CCN(CC(=O)N2CCC(Cn3cc4c(n3)CCc3c-4sc4ncnc(Nc5ccc(OCc6cccc(F)c6)c(Cl)c5)c34)CC2)CC1` [Example 237]: the results for the IC50 in test [1] and in test [2] were at most 1 µM and at most 5 µM, respectively.

With `O=C(CN1CCOCC1)N1CCC(Cn2cc3c(n2)CCc2c-3sc3ncnc(Nc4ccc(OCc5cccc(F)c5)c(Cl)c4)c23)CC1` [Example 238, N-{3-chloro-4-[(3-fluorobenzyl)oxy]phenyl}-2-{[1-(morpholin-4-ylacetyl)piperidin-4-yl]methyl}-4,5-dihydro-2H-pyrimido[5′,4′:4,5]thieno[2,3-e]indazol-6-amine], the IC50 in test [1] was at most 1 µM; in test [2] it was at most 5 µM.

With `O=C(CN1CCCC1)N1CCC(Cn2cc3c(n2)CCc2c-3sc3ncnc(Nc4ccc(OCc5cccc(F)c5)c(Cl)c4)c23)CC1` [Example 239, N-{3-chloro-4-[(3-fluorobenzyl)oxy]phenyl}-2-{[1-(pyrrolidin-1-ylacetyl)piperidin-4-yl]methyl}-4,5-dihydro-2H-pyrimido[5′,4′:4,5]thieno[2,3-e]indazol-6-amine], the IC50 is at most 1 µM in test [1] and at most 5 µM in test [2].

Consider `O=C(CN(CCO)CCO)N1CCC(Cn2cc3c(n2)CCc2c-3sc3ncnc(Nc4ccc(OCc5cccc(F)c5)c(Cl)c4)c23)CC1` [Example 240, 2,2′-{[2-(4-{[6-({3-chloro-4-[(3-fluorobenzyl)oxy]phenyl}amino)-4,5-dihydro-2H-pyrimido[5′,4′:4,5]thieno[2,3-e]indazol-2-yl]methyl}piperidin-1-yl)-2-oxoethyl]imino}diethanol], for which the IC50 in test [1] is at most 1 µM; in test [2], at most 5 µM.
